The source made the active and inactive calls. How the calls were made is not given here.

A word on the TD50: it is the dose at which the toxic effect under study appears in half of the subjects.

This data set concerns rodent lifetime carcinogenesis bioassay, tumor incidence TD50. As to the kind of experiment: chronic cancer bioassays in animals – CPDB, compiled studies (AID 1745844).

Regarding `O=[N+]([O-])c1cccc2cccnc12`, the TD50 was 32.8 mg/kg/day (rat, strain Fischer 344, females, in feed, site: forestomach, lesion: squamous-cell carcinoma, dosed 104 weeks, study length 104 weeks); 9.55 mg/kg/day (rat, strain Fischer 344, females, in feed, site: forestomach, lesion: squamous-cell papilloma, dosed 104 weeks, study length 104 weeks); 24.9 mg/kg/day (rat, strain Fischer 344, males, in feed, site: forestomach, lesion: squamous-cell carcinoma, dosed 104 weeks, study length 104 weeks); 10.1 mg/kg/day (rat, strain Fischer 344, males, in feed, site: forestomach, lesion: squamous-cell papilloma, dosed 104 weeks, study length 104 weeks). The carcinogen call (rat, strain Fischer 344, females, in feed, site: liver, lesion: hyperplastic nodule, dosed 104 weeks, study length 104 weeks) was “negative (inactive)” and the carcinogen call (rat, strain Fischer 344, males, in feed, site: liver, lesion: hyperplastic nodule, dosed 104 weeks, study length 104 weeks) was “negative (inactive)”.

As to `CC(=O)[O][Sn]([c]1ccccc1)([c]1ccccc1)[c]1ccccc1`, the TD50 is, setting by setting: (mouse, strain B6AKF1, females, oral dosing, site: any site (literature study), lesion: several types, types named in the paper, dosed 76 weeks, study length 76 weeks) 437 mg/kg/day (inactive); (mouse, strain B6AKF1, females, oral dosing, site: lung, lesion: adenoma, dosed 76 weeks, study length 76 weeks) 964 mg/kg/day (inactive); (mouse, strain B6AKF1, males, oral dosing, site: any site (literature study), lesion: several types, types named in the paper, dosed 76 weeks, study length 76 weeks) 307 mg/kg/day (inactive); (mouse, strain B6AKF1, males, oral dosing, site: liver, lesion: hepatoma, dosed 76 weeks, study length 76 weeks) 241 mg/kg/day (inactive); (mouse, strain B6C3F1, females, oral dosing, site: any site (literature study), lesion: several types, types named in the paper, dosed 76 weeks, study length 76 weeks) 284 mg/kg/day (inactive); (mouse, strain B6C3F1, females, oral dosing, site: liver, lesion: hepatoma, dosed 76 weeks, study length 76 weeks) 909 mg/kg/day (inactive). The TD50 is 440 mg/kg/day (inactive) (mouse, strain B6C3F1, females, oral dosing, site: lung, lesion: adenoma, dosed 76 weeks, study length 76 weeks); 117 mg/kg/day (inactive) (mouse, strain B6C3F1, males, oral dosing, site: any site (literature study), lesion: several types, types named in the paper, dosed 76 weeks, study length 76 weeks); 407 mg/kg/day (inactive) (mouse, strain B6C3F1, males, oral dosing, site: liver, lesion: hepatoma, dosed 76 weeks, study length 76 weeks); 262 mg/kg/day (inactive) (mouse, strain B6C3F1, males, oral dosing, site: lung, lesion: adenoma, dosed 76 weeks, study length 76 weeks). Moreover, the carcinogen call is “negative (inactive)” (mouse, strain B6AKF1, females, oral dosing, site: liver, lesion: hepatoma, dosed 76 weeks, study length 76 weeks) and “negative (inactive)” (mouse, strain B6AKF1, males, oral dosing, site: lung, lesion: adenoma, dosed 76 weeks, study length 76 weeks).

Take `C=CC(=O)c1ccc2c(c1)OCO2`: the carcinogen call (rat, strain Charles River CD (Sprague-Dawley), males, in feed, site: liver, lesion: carcinoma, dosed 73 weeks, study length 95 weeks) is “negative (inactive)”.

Consider `CC1CN(N=O)CC(C)N1C` (configuration not stated), for which the TD50 (hamster, strain Syrian Golden, males, by gavage, site: forestomach, lesion: papilloma, dosed 46 weeks, study length 69 weeks) is 1.32 mg/kg/day; the TD50 (hamster, strain Syrian Golden, males, by gavage, site: liver, lesion: angiosarcoma, dosed 46 weeks, study length 69 weeks) was 6.18 mg/kg/day; the TD50 (hamster, strain Syrian Golden, males, by gavage, site: lung, lesion: adenoma, dosed 46 weeks, study length 69 weeks) is 1.73 mg/kg/day; the TD50 (hamster, strain Syrian Golden, males, by gavage, site: lung, lesion: carcinoma, dosed 46 weeks, study length 69 weeks) was 3.2 mg/kg/day; the TD50 (rat, strain Fischer 344, females, in drinking water, site: nasal cavity, lesion: olfactory carcinoma, dosed 30 weeks, study length 85 weeks) is 0.151 mg/kg/day.

Consider `CCBr`, for which the TD50 (mouse, strain B6C3F1, females, inhaled, site: any site (literature study), lesion: several types, types named in the paper, dosed 103 weeks, study length 105 weeks) was 571 mg/kg/day; the TD50 (mouse, strain B6C3F1, females, inhaled, site: lung, lesion: alveolar/bronchiolar adenoma + alveolar/bronchiolar carcinoma, dosed 103 weeks, study length 105 weeks) worked out at 5810 mg/kg/day; the TD50 (mouse, strain B6C3F1, females, inhaled, site: uterus, lesion: adenocarcinoma, NOS + adenoma, NOS + squamous-cell carcinoma, dosed 103 weeks, study length 105 weeks) was 535 mg/kg/day; the TD50 (mouse, strain B6C3F1, females, inhaled, site: uterus, lesion: adenocarcinoma, NOS + adenoma, NOS, dosed 103 weeks, study length 105 weeks) stood at 596 mg/kg/day; the TD50 (mouse, strain B6C3F1, females, inhaled, site: uterus, lesion: adenocarcinoma, NOS + squamous-cell carcinoma, dosed 103 weeks, study length 105 weeks) was determined as 681 mg/kg/day; the TD50 (mouse, strain B6C3F1, females, inhaled, site: uterus, lesion: adenocarcinoma, NOS, dosed 103 weeks, study length 105 weeks) is 822 mg/kg/day. The TD50 (mouse, strain B6C3F1, females, inhaled, site: uterus, lesion: adenoma, NOS, dosed 103 weeks, study length 105 weeks) was 2610 mg/kg/day; the TD50 (mouse, strain B6C3F1, females, inhaled, site: uterus, lesion: squamous-cell carcinoma, dosed 103 weeks, study length 105 weeks) was found to be 4440 mg/kg/day; the TD50 (mouse, strain B6C3F1, males, inhaled, site: any site (literature study), lesion: several types, types named in the paper, dosed 104 weeks, study length 105 weeks) was determined as 1630 mg/kg/day; the TD50 (mouse, strain B6C3F1, males, inhaled, site: liver, lesion: hepatocellular adenoma + hepatocellular carcinoma + neoplastic nodule, dosed 104 weeks, study length 105 weeks) was determined as 3670 mg/kg/day; the TD50 (mouse, strain B6C3F1, males, inhaled, site: lung, lesion: alveolar/bronchiolar adenoma + alveolar/bronchiolar carcinoma, dosed 104 weeks, study length 105 weeks) was determined as 1100 mg/kg/day; the TD50 (mouse, strain B6C3F1, males, inhaled, site: lung, lesion: alveolar/bronchiolar carcinoma, dosed 104 weeks, study length 105 weeks) came out at 2390 mg/kg/day. For the same compound, the TD50 reads like this: (rat, strain Fischer 344, females, inhaled, site: brain, lesion: glioma, NOS, dosed 104 weeks, study length 106 weeks) 1020 mg/kg/day; (rat, strain Fischer 344, females, inhaled, site: liver, lesion: hepatocellular adenoma + hepatocellular carcinoma + neoplastic nodule, dosed 104 weeks, study length 106 weeks) 670 mg/kg/day; (rat, strain Fischer 344, females, inhaled, site: lung, lesion: alveolar/bronchiolar adenoma, dosed 104 weeks, study length 106 weeks) 1280 mg/kg/day; (rat, strain Fischer 344, males, inhaled, site: adrenal medulla + brain + lung, lesion: pheochromocytoma + pheochromocytoma, malignant + astrocytoma + granulosa-cell tumor, NOS + glioma, NOS + oligodendroglioma + alveola, dosed 104 weeks, study length 106 weeks) 151 mg/kg/day; (rat, strain Fischer 344, males, inhaled, site: adrenal medulla, lesion: pheochromocytoma + pheochromocytoma, malignant, dosed 104 weeks, study length 106 weeks) 149 mg/kg/day; (rat, strain Fischer 344, males, inhaled, site: brain, lesion: granulosa-cell tumor, NOS, dosed 104 weeks, study length 106 weeks) 80700 mg/kg/day. Further, the TD50 reads like this: (rat, strain Fischer 344, males, inhaled, site: liver, lesion: hepatocellular adenoma + hepatocellular carcinoma + neoplastic nodule, dosed 104 weeks, study length 106 weeks) 2280 mg/kg/day; (rat, strain Fischer 344, males, inhaled, site: liver, lesion: neoplastic nodule, dosed 104 weeks, study length 106 weeks) 1140 mg/kg/day; (rat, strain Fischer 344, males, inhaled, site: lung, lesion: alveolar/bronchiolar adenoma + alveolar/bronchiolar carcinoma, dosed 104 weeks, study length 106 weeks) 582 mg/kg/day. Further, under “rat, strain Fischer 344, males, inhaled, site: brain, lesion: astrocytoma + glioma, NOS + oligodendroglioma, dosed 104 weeks, study length 106 weeks”, the carcinogen call is “p”.

On to `CC(=O)[O-].CC(=O)[O-].CCC(=O)c1ccc(F)c([C@@H]2C[C@@H]2NC(=O)Nc2ccc(C#N)cn2)c1O.[Zn+2]`, for which the TD50 is, setting by setting: (hamster, strain Syrian Golden, females, in feed, site: any site (literature study), lesion: several types, types named in the paper, dosed 78 weeks, study length 78 weeks) 177000 mg/kg/day (inactive); (hamster, strain Syrian Golden, males, in feed, site: any site (literature study), lesion: several types, types named in the paper, dosed 106 weeks, study length 111 weeks) 54100 mg/kg/day (inactive); (rat, strain MRC, females, in feed, site: peripheral nervous system, lesion: one or several types, types not named, dosed 143 weeks, study length 146 weeks) 35400 mg/kg/day (inactive). Besides, the carcinogen call (hamster, strain Syrian Golden, females, in feed, site: liver, lesion: hemangioma, dosed 78 weeks, study length 78 weeks) is “negative (inactive)”; the carcinogen call (hamster, strain Syrian Golden, males, in feed, site: liver, lesion: hemangioma, dosed 106 weeks, study length 111 weeks) was “negative (inactive)”; the carcinogen call (rat, strain MRC, females, in feed, site: skin, lesion: one or several types, types not named, dosed 143 weeks, study length 146 weeks) was “negative (inactive)”; the carcinogen call (rat, strain MRC, males, in feed, site: any site (literature study), lesion: several types, types named in the paper, dosed 139 weeks, study length 141 weeks) was “negative (inactive)”.

For `O=NN(CCO)C(=O)NCCCl`, the TD50 is 0.76 mg/kg/day (rat, strain Fischer 344, females, by gavage, site: all sites, lesion: mononuclear-cell leukemia, dosed 40 weeks, study length 115 weeks); 4.38 mg/kg/day (rat, strain Fischer 344, females, by gavage, site: kidney tubule, lesion: several types, types named in the paper, dosed 40 weeks, study length 115 weeks); 4.38 mg/kg/day (rat, strain Fischer 344, females, by gavage, site: liver, lesion: cholangiocarcinoma, dosed 40 weeks, study length 115 weeks); 0.653 mg/kg/day (rat, strain Fischer 344, females, by gavage, site: liver, lesion: hepatocellular carcinoma, dosed 40 weeks, study length 115 weeks); 0.564 mg/kg/day (rat, strain Fischer 344, females, by gavage, site: liver, lesion: neoplastic nodule, dosed 40 weeks, study length 115 weeks); 0.488 mg/kg/day (rat, strain Fischer 344, females, by gavage, site: liver, lesion: several types, types named in the paper, dosed 40 weeks, study length 115 weeks). Moreover, the TD50 reads like this: (rat, strain Fischer 344, females, in drinking water, site: liver, lesion: one or several types, types not named, dosed 30 weeks, study length 104 weeks) 1.19 mg/kg/day; (rat, strain Fischer 344, females, in drinking water, site: uterus, lesion: one or several types, types not named, dosed 30 weeks, study length 104 weeks) 0.669 mg/kg/day; (rat, strain Fischer 344, males, by gavage, site: kidney tubule, lesion: several types, types named in the paper, dosed 35 weeks, study length 120 weeks) 0.663 mg/kg/day; (rat, strain Fischer 344, males, by gavage, site: liver, lesion: cholangiocarcinoma, dosed 35 weeks, study length 120 weeks) 0.926 mg/kg/day; (rat, strain Fischer 344, males, by gavage, site: liver, lesion: hepatocellular carcinoma, dosed 35 weeks, study length 120 weeks) 0.233 mg/kg/day; (rat, strain Fischer 344, males, by gavage, site: liver, lesion: neoplastic nodule, dosed 35 weeks, study length 120 weeks) 1.19 mg/kg/day. The TD50 is, setting by setting: (rat, strain Fischer 344, males, by gavage, site: liver, lesion: several types, types named in the paper, dosed 35 weeks, study length 120 weeks) 0.15 mg/kg/day; (rat, strain Fischer 344, males, in drinking water, site: liver, lesion: one or several types, types not named, dosed 30 weeks, study length 104 weeks) 0.59 mg/kg/day.

For the origin of these results see PubChem BioAssay AID1745844 (Carcinogenic Potency Database (CPDB), 2022).
